Laboratory results published in the NIST ThermoML archive (doi:10.1016/j.tca.2009.08.016).
Numbers after ± are expanded uncertainties.

Columns and labels:
[1] = Crystal; DTA
[2] = Molar enthalpy of transition or fusion; settings: Crystal; DSC

Row | SMILES | Normal melting temperature [1] [°C] | Molar enthalpy of transition or fusion [2] [kcal/mol]
1 | CCN(CC)CC(=O)Nc1c(C)cccc1C [2-(diethylamino)-N-(2,6-dimethylphenyl)acetamide] | 67.54 ± 1.1 | 3.92 ± 0.12
2 | O=C(Oc1ccccc1)c1ccccc1O [phenyl salicylate] | 41.93 ± 1.1 | 4.59 ± 0.239
